In one data set the test system is Candida albicans. The experiment in a line: standard disc-diffusion assay. It counts as cell-based.
The test system of data set [1] is Klebsiella pneumoniae KL14. The data set is described as follows: MIC, standard agar-dilution assay. It counts as cell-based.
The next data set has as its system Histoplasma capsulatum. The data set is described as follows: microbe, parasite or virus in culture. It counts as cell-based.
Another data set concerns Proteus morganii PR15. The experiment in a line: MIC, standard agar-dilution assay. As to conditions: Morganella morganii. Format: cell-based.
For a further data set, the system named is Salmonella typhimurium. The data set is described as follows: MIC, standard agar-dilution assay. Format: cell-based. The settings on record: Salmonella enterica.
For data set [2], the system named is Pseudomonas solanacearum X185. The data set is described as follows: microbe, parasite or virus in culture. It counts as cell-based. As to conditions: Ralstonia solanacearum.
Another data set deals with Blastomyces dermatitidis. The data set is described as follows: MIC, standard agar-dilution assay. It counts as cell-based.
A further data set concerns Salmonella typhosa SA12. The experiment in a line: MIC, standard agar-dilution assay. As to conditions: Salmonella enterica. It counts as cell-based.
Data set [3] can be described thus: toxicity (LD50) in mice, intraperitoneal. The settings on record: mouse, in vivo, ip, intraperitoneally.
For another data set, the system named is Candida tropicalis Z17. The data set is described as follows: MIC, standard agar-dilution assay. It counts as cell-based.
For another data set, the system named is Serratia marcescens SE3. The data set is described as follows: MIC, standard agar-dilution assay. Format: cell-based.
Data set [4] has as its system Pseudomonas aeruginosa X239. The experiment in a line: MIC, standard agar-dilution assay. It counts as cell-based.
In data set [5] the test system is Streptococcus faecalis X66. The experiment in a line: MIC, standard agar-dilution assay. Format: cell-based. As to conditions: Enterococcus faecalis.
Data set [6] has as its system Bordetella bronchiseptica 16. The data set is described as follows: MIC, standard agar-dilution assay. Format: cell-based.
A further data set deals with Cryptococcus neoformans. The experiment in a line: MIC, standard agar-dilution assay. It counts as cell-based.
Another data set deals with C. albicans. The data set is described as follows: dermal C. albicans infection in rabbits, topical treatment. The settings on record: ten days treatment with 1% solution in propylene glycol. Format: in vivo.
In data set [7] the test system is Staphylococcus aureus 3055. The experiment in a line: MIC, standard agar-dilution assay. It counts as cell-based.
In another data set the test system is Aspergillus flavus E. The experiment in a line: MIC, standard agar-dilution assay. Format: cell-based.
The next data set deals with Escherichia coli EC14. The experiment in a line: MIC, standard agar-dilution assay. Format: cell-based.
The test system of data set [8] is Staphylococcus aureus 3074. The experiment in a line: MIC, standard agar-dilution assay. Format: cell-based.
The subject of the next data set is Erwinia amylovora. The experiment in a line: MIC, standard agar-dilution assay. Format: cell-based.
The test system of another data set is Ceratocystis ulmi. The data set is described as follows: MIC, standard agar-dilution assay. It counts as cell-based.
Data set [9] has as its system Citrobacter freundii MX CF17. The experiment in a line: MIC, standard agar-dilution assay. It counts as cell-based. As to conditions: MXCF17.
Data set [10] concerns Trichophyton mentagrophytes 27. The experiment in a line: MIC, standard agar-dilution assay. Format: cell-based.

In brackets after ≈: the same amount, converted by molar mass.

Consider `COC1c2cc(Cl)c(O)cc2ON2C(=O)C3NC(=O)C12SS3` (stereo not drawn), for which the “amount inhibiting Candida albicans” value in the data set on Candida albicans is reported as “less than 0.312 mcg per disc”. Also, the MIC was over 100 µg/mL in data set [1]; 10 µg/mL (≈ 27.7 µM) against Histoplasma capsulatum; over 100 µg/mL in the data set with Proteus morganii PR15; over 100 µg/mL in the data set with Salmonella typhimurium; over 100 µg/mL in data set [2]; 10 µg/mL (≈ 27.7 µM) in the data set on Blastomyces dermatitidis. Further, the MIC against Salmonella typhosa SA12 was over 100 µg/mL; in the data set on Candida tropicalis Z17, over 100 µg/mL; with Serratia marcescens SE3, over 100 µg/mL; in [4] it was over 100 µg/mL; in [5], over 100 µg/mL; in [6], 50 µg/mL (≈ 139 µM). For the same compound, the MIC in the data set on Cryptococcus neoformans is under 0.156 µg/mL; in data set [7], 3.12 µg/mL (≈ 8.65 µM); against Aspergillus flavus E it was 25 µg/mL (≈ 69.3 µM); in the data set on Escherichia coli EC14, over 100 µg/mL; in data set [8], 0.78 µg/mL (≈ 2.16 µM); in the data set with Erwinia amylovora, 6.25 µg/mL (≈ 17.3 µM). Further, the MIC is 12.5 µg/mL (≈ 34.6 µM) with Ceratocystis ulmi, over 100 µg/mL in data set [9] and 25 µg/mL (≈ 69.3 µM) in data set [10]. In addition, the median lethal dose (LD50) in [3] was found to be 106 mg/kg. Moreover, the “lesions caused by a dermal C. albicans infection” value in the data set with C. albicans was “reduced in severity and size”.

The values above are taken from patent US3991052A (priority 1975, dated 1976).
